Active and inactive are the calls of the source.

The results in this text go back to ChEMBL document CHEMBL1201862, “PubChem BioAssay data set” (2004).

The test system of one assay is Streptococcus. In words: GAS UMAA2166 growth inhibition – luminescence, BacTiterGlo, counter-screen for streptokinase expression inhibitor project, dose response (AID 1915).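 Note: potency for reduction of bacterial viability or growth.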 The format is functional, organism-based.
The target of assay [1] is T1, Heat shock factor protein 1 (Mus musculus, UniProt P38532).
T1 sequence (P38532 whole entry): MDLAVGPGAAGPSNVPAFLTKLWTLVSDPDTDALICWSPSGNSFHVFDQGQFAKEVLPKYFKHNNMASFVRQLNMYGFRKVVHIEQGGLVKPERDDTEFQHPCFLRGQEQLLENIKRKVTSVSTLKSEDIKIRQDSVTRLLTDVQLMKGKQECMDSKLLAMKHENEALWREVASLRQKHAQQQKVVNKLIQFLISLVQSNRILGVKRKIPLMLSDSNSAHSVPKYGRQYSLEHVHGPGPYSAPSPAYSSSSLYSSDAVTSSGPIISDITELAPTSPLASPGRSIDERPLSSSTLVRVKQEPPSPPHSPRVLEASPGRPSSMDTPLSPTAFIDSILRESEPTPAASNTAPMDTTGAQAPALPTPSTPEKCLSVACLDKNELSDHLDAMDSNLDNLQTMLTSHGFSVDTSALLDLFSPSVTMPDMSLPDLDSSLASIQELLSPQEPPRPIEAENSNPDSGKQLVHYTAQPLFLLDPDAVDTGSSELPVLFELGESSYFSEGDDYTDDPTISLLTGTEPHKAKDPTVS
In words: decrease of HSF1-responsive luciferase luminescence – cell-based, NIH3T3, dose retest, confirmation (AID 2382).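 Note: NIH3T3 fibroblasts with HSF1-driven luciferase reporter stressed by proteasome inhibitor MG132; luminescence from HSF1-driven luciferase expression after 8 hours of MG132 stress.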 The format is functional.

A further assay relates to Escherichia coli. Put plainly: microbe, parasite or virus in culture.
Assay [2] is described as follows: viability of uninfected HEp-2 cells – cell-based, HTS, cytotoxicity control for RSV inhibitor project, dose response (AID 2410). The format is functional. As to conditions: human respiratory syncytial virus.
Assay [3] has as its system Streptococcus sp. 'group A'. In words: Streptococcus pyogenes SK(-)GAS viability under kanamycin – luminescence, BacTiterGlo, confirmation, counter-screen for streptokinase expression inhibitor project, dose response (AID 1900). The assay is classed as functional, organism-based. (In general: The purpose of a counterscreen is to sort out artefacts and off-target activity.)

Assay [4] has as its target T2, Ubiquitin-conjugating enzyme E2 N (Homo sapiens, UniProt P61088).
T2 sequence (P61088 whole entry): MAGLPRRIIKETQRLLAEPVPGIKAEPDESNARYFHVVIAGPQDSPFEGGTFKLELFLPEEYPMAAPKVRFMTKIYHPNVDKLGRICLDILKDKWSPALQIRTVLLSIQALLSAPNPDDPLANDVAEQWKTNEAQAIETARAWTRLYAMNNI
The assay is classed as functional.

Another assay concerns the target T3, Bcl-2-related protein A1 (Mus musculus, UniProt Q07440).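 Note: confirmatory dose–response counterscreen on Bfl-1, used to check hits from a UBC13 polyubiquitin inhibitor campaign.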
T3 sequence (Q07440 whole entry): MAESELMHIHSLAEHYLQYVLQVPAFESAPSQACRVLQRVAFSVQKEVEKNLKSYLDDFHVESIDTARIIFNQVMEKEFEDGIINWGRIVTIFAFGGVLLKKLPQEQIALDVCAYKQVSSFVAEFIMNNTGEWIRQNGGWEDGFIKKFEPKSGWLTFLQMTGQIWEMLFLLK
The format is functional.

The target in assay [5] is T4, DNA repair protein RAD52 homolog (Homo sapiens, UniProt P43351).
T4 sequence (P43351 whole entry): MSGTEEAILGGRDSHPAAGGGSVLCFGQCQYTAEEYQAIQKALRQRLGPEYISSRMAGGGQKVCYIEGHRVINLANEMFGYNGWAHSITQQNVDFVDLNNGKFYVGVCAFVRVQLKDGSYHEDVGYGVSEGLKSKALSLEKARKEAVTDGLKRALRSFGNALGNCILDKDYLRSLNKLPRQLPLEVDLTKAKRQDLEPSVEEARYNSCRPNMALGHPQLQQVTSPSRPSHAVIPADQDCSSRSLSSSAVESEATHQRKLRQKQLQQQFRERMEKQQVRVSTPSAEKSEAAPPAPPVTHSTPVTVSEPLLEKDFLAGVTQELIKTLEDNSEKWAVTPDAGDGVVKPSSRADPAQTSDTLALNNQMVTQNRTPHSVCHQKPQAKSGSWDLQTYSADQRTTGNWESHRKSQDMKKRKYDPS
The format is functional, biochemical.

A short description of assay [6]: NIH-3T3 fibroblast cytotoxicity, dose response, cytotoxicity control, cell-based, fluorescence, Alamar Blue, secondary assay (AID 2327).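 Note: NIH-3T3 mouse fibroblasts cultured with fluconazole at 8 µg/mL.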 The format is functional. On the technique in general: The colour change of resazurin is a common sign of viable cells or microbes.
A further assay has as its target T5, Protein skinhead-1 (Caenorhabditis elegans, UniProt P34707).
T5 sequence (P34707 whole entry): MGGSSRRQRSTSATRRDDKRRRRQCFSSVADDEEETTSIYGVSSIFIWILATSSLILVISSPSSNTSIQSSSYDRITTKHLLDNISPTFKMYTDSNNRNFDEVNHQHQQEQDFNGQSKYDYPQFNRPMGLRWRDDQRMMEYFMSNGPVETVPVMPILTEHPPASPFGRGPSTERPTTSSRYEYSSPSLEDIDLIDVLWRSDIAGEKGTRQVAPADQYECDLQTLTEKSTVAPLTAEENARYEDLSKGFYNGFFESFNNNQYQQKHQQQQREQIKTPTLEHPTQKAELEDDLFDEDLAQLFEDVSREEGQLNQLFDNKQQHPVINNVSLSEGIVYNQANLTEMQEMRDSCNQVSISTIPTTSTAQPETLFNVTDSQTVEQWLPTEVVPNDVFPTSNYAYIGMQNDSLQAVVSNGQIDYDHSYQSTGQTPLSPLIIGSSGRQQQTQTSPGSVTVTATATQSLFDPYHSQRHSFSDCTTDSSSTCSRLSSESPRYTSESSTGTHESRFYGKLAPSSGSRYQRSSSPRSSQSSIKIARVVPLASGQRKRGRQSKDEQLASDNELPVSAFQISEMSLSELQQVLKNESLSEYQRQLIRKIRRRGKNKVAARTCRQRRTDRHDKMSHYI
The assay is classed as functional.

Assay [7] is described as follows: fluconazole-exposed Candida albicans growth modulators – fluorescence, retest, confirmation (AID 2467). The assay is classed as functional, cell-based.
The target in assay [8] is T6, Apoptotic protease-activating factor 1 (Homo sapiens, UniProt O14727).
T6 sequence (O14727 whole entry): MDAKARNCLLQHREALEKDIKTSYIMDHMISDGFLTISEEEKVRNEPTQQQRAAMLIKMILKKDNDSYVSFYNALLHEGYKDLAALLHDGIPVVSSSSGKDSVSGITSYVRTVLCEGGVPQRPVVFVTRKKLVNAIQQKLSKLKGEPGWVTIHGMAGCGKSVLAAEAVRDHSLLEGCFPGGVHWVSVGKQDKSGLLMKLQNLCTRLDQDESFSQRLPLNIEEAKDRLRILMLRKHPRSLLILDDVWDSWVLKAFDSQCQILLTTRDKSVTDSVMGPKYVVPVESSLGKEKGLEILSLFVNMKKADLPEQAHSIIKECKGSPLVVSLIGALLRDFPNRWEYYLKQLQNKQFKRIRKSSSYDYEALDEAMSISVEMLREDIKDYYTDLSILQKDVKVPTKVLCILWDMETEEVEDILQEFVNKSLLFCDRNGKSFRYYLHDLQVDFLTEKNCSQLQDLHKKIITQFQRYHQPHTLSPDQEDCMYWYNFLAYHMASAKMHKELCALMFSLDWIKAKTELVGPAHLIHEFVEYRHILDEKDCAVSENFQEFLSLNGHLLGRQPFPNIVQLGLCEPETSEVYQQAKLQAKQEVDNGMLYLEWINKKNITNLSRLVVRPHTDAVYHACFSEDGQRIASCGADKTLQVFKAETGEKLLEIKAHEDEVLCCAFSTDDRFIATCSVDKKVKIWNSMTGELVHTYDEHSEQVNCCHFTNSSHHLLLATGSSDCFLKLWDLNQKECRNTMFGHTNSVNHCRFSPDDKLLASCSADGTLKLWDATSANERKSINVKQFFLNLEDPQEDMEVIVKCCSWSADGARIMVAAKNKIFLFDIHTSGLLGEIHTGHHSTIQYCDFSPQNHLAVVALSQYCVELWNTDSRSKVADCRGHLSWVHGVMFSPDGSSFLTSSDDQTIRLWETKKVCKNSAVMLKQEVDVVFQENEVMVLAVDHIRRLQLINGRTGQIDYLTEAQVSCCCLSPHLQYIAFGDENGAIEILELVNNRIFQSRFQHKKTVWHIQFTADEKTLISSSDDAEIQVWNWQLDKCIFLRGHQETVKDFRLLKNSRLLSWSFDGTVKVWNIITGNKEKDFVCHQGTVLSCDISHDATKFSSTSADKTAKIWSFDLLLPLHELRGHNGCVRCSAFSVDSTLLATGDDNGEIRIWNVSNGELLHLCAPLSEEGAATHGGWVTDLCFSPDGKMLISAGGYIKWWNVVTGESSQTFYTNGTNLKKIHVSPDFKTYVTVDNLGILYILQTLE
The assay is classed as functional.

The target in assay [9] is T2, Ubiquitin-conjugating enzyme E2 N. The format is functional. The source holds these as a separate data set.
Assay [10] concerns the target Glucose-6-phosphate 1-dehydrogenase (Homo sapiens, UniProt P11413). Put plainly: inhibition of Homo sapiens G6PD, dose series – biochemical, fluorescence, selectivity assay for P. falciparum G6PD inhibitor project, dose response (AID 504792). The format is functional.
A further assay deals with Mu-type opioid receptor (Homo sapiens, UniProt P35372). In words: Counterscreen for agonists of heterodimerization of the mu 1 (OPRM1) and delta 1 (OPRD1) opioid receptors: Luminescence-based cell-based high throughput dose response assay to identify agonists of OPRM1 homodimerization. The assay is classed as functional.
The target of assay [11] is Delta-type opioid receptor (Homo sapiens, UniProt P41143). In words: Counterscreen for agonists of heterodimerization of the mu 1 (OPRM1) and delta 1 (OPRD1) opioid receptors: Luminescence-based cell-based high throughput dose response assay to identify agonists of OPRD1 homodimerization. [Related pubchem assays (depositor defined):AID504326, AID504355, AID504692, AID504904, AID504905]. The assay is classed as functional.

The target in assay [12] is 5-hydroxytryptamine receptor 5A (Homo sapiens, UniProt P47898). In words: Counterscreen for agonists of OPRM1-OPRD1 heterodimerization: luminescence-based cell-based high throughput dose response assay to identify agonists of 5-hydroxytryptamine (serotonin) 5A receptor (HTR5A). [Related pubchem assays (depositor defined):AID504326, AID504355, AID504692, AID504904, AID504905]. The format is functional.

The next assay concerns the target Phospholipase A2 (Homo sapiens, UniProt P04054). The format is functional.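 Note: confirmatory dose-response counterscreen on phospholipase A2, testing hits that came from an ultra-high-throughput screen for ATG4B inhibitors.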
For the next assay, the target named is Cysteine protease ATG4B (Homo sapiens, UniProt Q9Y4P1). The assay is classed as functional.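 Note: Fluorescence-based dose-response confirmation assay measuring inhibition of ATG4B activity.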
For the next assay, the system named is Candida albicans. In words: fluconazole-resistant Candida strain growth inhibitors – CaCi-8 strain, dry powder, set 4, dose response (AID 488950). The assay is classed as functional, organism-based.

Mu-type opioid receptor, sequence (P35372 whole entry): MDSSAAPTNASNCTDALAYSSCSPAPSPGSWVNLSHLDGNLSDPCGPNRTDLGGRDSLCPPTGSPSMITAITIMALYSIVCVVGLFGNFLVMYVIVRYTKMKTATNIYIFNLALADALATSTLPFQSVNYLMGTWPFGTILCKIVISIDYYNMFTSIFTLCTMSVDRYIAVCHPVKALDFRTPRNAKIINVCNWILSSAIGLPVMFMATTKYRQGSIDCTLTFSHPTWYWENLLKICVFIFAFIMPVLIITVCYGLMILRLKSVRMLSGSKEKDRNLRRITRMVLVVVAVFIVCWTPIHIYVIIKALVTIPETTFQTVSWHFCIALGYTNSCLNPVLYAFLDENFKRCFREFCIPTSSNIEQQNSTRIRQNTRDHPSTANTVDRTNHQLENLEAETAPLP
5-hydroxytryptamine receptor 5A, sequence (P47898 whole entry): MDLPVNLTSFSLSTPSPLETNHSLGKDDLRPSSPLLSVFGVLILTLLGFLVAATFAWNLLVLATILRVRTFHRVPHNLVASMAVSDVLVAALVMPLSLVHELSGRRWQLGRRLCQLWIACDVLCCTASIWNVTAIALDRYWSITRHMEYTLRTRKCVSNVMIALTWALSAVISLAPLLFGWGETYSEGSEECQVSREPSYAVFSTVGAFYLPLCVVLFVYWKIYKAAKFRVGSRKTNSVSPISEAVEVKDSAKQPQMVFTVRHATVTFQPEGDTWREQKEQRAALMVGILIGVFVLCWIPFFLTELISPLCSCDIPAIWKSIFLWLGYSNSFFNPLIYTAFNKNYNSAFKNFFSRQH
Delta-type opioid receptor, sequence (P41143 whole entry): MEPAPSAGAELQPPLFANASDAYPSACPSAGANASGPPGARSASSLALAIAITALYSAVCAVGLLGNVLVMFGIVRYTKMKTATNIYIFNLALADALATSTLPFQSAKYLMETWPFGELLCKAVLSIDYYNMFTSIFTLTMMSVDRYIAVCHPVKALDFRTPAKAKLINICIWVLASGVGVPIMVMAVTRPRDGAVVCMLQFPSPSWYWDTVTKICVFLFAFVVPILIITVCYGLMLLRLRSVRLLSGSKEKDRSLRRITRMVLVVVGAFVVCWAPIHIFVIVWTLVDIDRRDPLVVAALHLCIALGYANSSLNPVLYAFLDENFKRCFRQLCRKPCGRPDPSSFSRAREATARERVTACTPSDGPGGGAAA
Phospholipase A2, sequence (P04054 whole entry): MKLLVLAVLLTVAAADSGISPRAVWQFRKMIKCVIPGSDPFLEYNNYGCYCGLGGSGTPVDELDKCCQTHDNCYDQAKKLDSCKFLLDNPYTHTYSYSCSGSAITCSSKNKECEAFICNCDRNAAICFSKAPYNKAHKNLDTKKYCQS
Cysteine protease ATG4B, sequence (Q9Y4P1 whole entry): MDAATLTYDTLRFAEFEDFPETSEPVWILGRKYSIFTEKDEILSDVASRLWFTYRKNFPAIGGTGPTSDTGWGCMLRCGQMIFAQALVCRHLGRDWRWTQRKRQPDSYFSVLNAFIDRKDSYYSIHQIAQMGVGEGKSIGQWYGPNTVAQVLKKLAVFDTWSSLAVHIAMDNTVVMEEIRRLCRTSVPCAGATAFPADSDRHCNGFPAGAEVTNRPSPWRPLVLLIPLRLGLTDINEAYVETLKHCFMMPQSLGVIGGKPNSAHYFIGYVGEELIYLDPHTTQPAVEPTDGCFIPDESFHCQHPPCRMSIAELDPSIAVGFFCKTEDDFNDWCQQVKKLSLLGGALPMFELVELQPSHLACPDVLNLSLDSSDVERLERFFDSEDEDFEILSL
Glucose-6-phosphate 1-dehydrogenase, sequence (P11413 whole entry): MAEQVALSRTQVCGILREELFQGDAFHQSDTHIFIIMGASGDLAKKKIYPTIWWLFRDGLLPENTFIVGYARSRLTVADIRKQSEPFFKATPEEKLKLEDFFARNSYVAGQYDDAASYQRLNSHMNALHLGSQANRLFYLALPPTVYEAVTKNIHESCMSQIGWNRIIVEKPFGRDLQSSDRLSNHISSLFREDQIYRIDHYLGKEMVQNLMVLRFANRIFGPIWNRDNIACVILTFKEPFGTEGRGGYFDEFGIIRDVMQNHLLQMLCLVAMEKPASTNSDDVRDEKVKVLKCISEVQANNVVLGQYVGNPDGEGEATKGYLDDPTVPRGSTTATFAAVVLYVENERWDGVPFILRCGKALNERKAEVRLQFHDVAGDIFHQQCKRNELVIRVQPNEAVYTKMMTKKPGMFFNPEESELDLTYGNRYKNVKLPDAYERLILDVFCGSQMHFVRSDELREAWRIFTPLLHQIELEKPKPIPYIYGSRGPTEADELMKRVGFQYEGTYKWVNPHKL

`COc1c(N2CCN(C(S)=NC3CC4CCC3C4)C(C)C2)c(F)cc2c(=O)c(C(=O)O)cn(C3CC3)c12` (stereo unspecified): the 50% effective concentration (EC50) (as a rule, the midpoint of the concentration-response curve) in the assay with Streptococcus is 3.77 µM (active); in assay [1], 17 µM (active); in [3], 5.85 µM (active). Also, in the assay on Escherichia coli, the concentration at half-maximal activity (AC50) (usually the concentration giving half of the maximal activity seen) is 2.64 µM (active). Besides, the CC50 (as a rule, the concentration giving 50% cytotoxicity) in assay [2] is 9.91 µM (active).
For `Cc1ccc2nc(-c3ccc(NC(S)=NC4CC(C)(C)NC(C)(C)C4)cc3)sc2c1`, the IC50 (as a rule, the concentration that gives 50% inhibition) in assay [4] was > 20 µM (inactive); at Bcl-2-related protein A1, > 20 µM (inactive); on Protein skinhead-1 it was 35.1 µM (active); in assay [8] it was 43.6 µM (active); in assay [9] it was 16.8 µM (active); in assay [10], > 80 µM (inactive). Further, the AC50 in [5] was 4.95 µM (active). Further, the figures for the EC50 in assay [6] and in assay [7] were > 150 µM (inactive) and > 38 µM (not active), respectively.
`COc1ccccc1CN1CCN(C(CC(C)C)c2nnnn2Cc2cccs2)CC1` (stereo unspecified): the EC50 (on Mu-type opioid receptor; in assay [11]; in assay [12]) was > 92.5 µM (inactive) in each case.
In the case of `O=C(O)CC/C(=C\c1ccc(Cl)c([N+](=O)[O-])c1)c1nc2ccccc2s1`, the IC50 was 12.3 µM (active) at Phospholipase A2 and 14.3 µM (active) on Cysteine protease ATG4B.
Consider `CCCCNC(=O)N1CCN(c2ccnc3cc(Cl)ccc23)CC1`, for which the AC50 in the assay with Candida albicans was 23 µM (active).
With `O=C1OC(c2cccs2)=N/C1=C\c1ccc(-c2cccc(Cl)c2)o1`, the half-inhibitory concentration (IC50) was 0.605 µM (active) at Phospholipase A2 and 14.8 µM (active) at Cysteine protease ATG4B.
On to `CN(C)C(CNC(=O)c1ccc2ccccc2c1)c1ccco1` (stereo unspecified), for which the EC50 (on Mu-type opioid receptor; in [11]; in [12]) was > 92.5 µM (inactive) each time.
Consider `CCN(CC)S(=O)(=O)c1ccc(=O)n(CC(=O)N2Cc3ccccc3CC2C(N)=O)c1` (stereo unspecified), for which, in the assay on Escherichia coli, the AC50 is 116 µM (active).
